Laboratory results from patent US11691977B2, “Cyclic ether derivatives of pyrazolo[1,5-A]pyrimidine-3-carboxyamide” (Boehringer Ingelheim International GmbH, priority 2015, dated 2023).

Legend:
[1] = biological target: PDE 2A (Homo sapiens (Human), UniProt O00408); assay: Phosphodiesterase (PDE) 2A assay with fluorescent substrate (IMAP, fluorescence polarization); type: biochemical; conditions: PDE2A, read-out: PDE2 IC50
Description: (§1) The IMAP system (Molecular Device) using fluorescence polarization (FP) as detection principle was used to measure enzyme activity. A fluorescent labeled cAMP was used as substrate for the reaction, generating a labeled AMP. The fluorescent AMP binds specifically to the large M(III)-based nano-particles which reduces the rotational speed of the substrate and thus increases its polarization. Detailed Method: The inhibition of PDE 2A or 10 enzyme activity was assessed using IMAP-Phosphodiesterase-cAMP fluorescence labeled substrate (Molecular Devices, Order No. R7506), IMAP TR-FRET screening express (Molecular Devices, Order No. R8160, the TR-FRET component will not be used) and PDE 2A or PDE10 protein expressed upon baculovirus infection in SF9 cells. The cells were incubated after infection for ˜3 days and protein production was confirmed by Western Blot. The cells were collected by centrifugation and the pellet frozen in liquid nitrogen before it was resuspended in PBS containing 1% Triton X-100 and protease inhibitors. After 45 min incubation on ice, the cell debris was removed by centrifugation (13.000 rpm, 30 min). […] All reactions were performed in 384 well plates, Perkin Elmer black optiplates and IMAP reaction buffer with 0.1% Tween20 (kit component) Compounds were serial diluted in DMSO. […] Reaction is stopped by adding of 60 μl binding buffer for FP/cAMP (kit component).

[2] = biological target: PDE10 (Homo sapiens (Human), UniProt Q9Y233); assay: Phosphodiesterase (PDE) 10 assay with fluorescent substrate (IMAP, fluorescence polarization); type: biochemical
PDE10, sequence (Q9Y233 whole entry): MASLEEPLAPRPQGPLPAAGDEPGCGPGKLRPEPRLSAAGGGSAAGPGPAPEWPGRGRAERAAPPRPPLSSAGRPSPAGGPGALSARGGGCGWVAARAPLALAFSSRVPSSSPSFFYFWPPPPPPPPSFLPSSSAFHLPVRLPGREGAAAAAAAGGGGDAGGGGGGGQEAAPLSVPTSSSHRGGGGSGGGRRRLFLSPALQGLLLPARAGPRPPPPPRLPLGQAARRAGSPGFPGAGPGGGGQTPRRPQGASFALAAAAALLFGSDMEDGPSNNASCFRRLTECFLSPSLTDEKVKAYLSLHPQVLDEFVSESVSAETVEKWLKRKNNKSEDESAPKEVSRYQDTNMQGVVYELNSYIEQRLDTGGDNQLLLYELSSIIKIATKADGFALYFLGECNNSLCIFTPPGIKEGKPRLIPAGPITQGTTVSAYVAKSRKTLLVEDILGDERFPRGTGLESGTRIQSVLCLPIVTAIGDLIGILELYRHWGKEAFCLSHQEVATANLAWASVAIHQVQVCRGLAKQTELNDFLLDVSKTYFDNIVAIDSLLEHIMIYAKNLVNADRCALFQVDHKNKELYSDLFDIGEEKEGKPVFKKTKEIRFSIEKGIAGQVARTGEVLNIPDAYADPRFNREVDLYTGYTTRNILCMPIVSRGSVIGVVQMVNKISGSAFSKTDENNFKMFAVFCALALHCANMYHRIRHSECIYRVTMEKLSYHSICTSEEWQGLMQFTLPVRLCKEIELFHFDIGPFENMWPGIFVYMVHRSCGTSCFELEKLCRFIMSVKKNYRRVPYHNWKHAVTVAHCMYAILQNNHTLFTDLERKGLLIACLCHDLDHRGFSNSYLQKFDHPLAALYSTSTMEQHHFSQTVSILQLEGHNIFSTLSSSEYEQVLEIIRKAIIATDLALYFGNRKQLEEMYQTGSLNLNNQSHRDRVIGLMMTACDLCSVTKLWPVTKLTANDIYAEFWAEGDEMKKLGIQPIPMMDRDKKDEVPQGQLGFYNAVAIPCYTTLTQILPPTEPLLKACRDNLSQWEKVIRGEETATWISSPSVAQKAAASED
Description: as §1

[3] = test system: human MDR1 P-gp; assay: Assessment of efflux in MDCK cells transfected with the human MDR1 gene (MDCK assay); type: in vitro ADME, canine; conditions: dog
Description: Assessment of Efflux in Madin-Darby Canine Kidney Cells Transfected with the Human MDR1 Gene (MDCK Assay)
Apparent permeability coefficients (PE) of the compounds across the MDCK-MDR1 cell monolayers are measured (pH 7.4, 37° C.) in apical-to-basal (AB) and basal-to-apical (BA) transport direction. AB permeability (PEAB) represents drug absorption from the blood into the brain and BA permeability (PEBA) drug efflux from the brain back into the blood via both passive permeability as well as active transport mechanisms mediated by efflux and uptake transporters that are expressed on the MDCK-MDR1 cells, predominantly by the overexpressed human MDR1 P-gp. The compounds are assigned to permeability/absorption classes by comparison of the AB permeabilities with the AB permeabilities of reference compounds with known in vitro permeability and oral absorption in the human. Identical or similar permeabilities in both transport directions indicate passive permeation, vectorial permeability points to additional active transport mechanisms. Higher PEBA than PEAB indicates the involvement of active efflux mediated by MDR1 P-gp. […]
MDCK-MDR1 cells (1-2×10e5 cells/1 cm2 area) are seeded on filter inserts (Costar transwell polycarbonate or PET filters, 0.4 μm pore size) and cultured (DMEM) for 7 days. […] Efflux ratio is calculated dividing the Papp (b-a) values by the Papp (a-b) values.

PDE 2A, sequence (O00408 whole entry, species assumed): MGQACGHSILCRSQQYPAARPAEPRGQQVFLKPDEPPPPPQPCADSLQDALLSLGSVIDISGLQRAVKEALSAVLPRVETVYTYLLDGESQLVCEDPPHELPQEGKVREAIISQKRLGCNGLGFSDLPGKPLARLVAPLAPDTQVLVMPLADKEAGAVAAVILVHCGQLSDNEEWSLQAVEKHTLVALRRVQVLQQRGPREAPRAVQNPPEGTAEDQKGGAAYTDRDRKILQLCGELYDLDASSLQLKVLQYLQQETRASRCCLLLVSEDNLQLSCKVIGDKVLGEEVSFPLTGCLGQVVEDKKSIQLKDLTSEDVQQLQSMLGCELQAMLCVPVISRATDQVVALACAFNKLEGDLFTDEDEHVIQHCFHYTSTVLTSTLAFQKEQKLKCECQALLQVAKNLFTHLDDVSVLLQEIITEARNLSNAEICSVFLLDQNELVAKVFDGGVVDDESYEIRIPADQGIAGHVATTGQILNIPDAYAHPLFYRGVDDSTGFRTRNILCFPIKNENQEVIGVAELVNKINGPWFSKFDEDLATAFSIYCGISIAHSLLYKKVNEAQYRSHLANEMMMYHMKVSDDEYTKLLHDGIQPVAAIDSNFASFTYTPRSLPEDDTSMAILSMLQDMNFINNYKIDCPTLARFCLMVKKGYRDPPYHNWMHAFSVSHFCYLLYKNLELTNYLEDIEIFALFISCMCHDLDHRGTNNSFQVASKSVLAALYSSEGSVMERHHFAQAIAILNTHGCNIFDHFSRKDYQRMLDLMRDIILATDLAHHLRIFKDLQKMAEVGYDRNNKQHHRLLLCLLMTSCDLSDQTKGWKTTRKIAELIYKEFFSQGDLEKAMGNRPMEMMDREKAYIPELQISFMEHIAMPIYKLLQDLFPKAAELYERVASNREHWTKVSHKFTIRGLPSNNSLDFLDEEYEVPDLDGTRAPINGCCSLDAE

- IC50 [1]: 0.088 µM
- IC50 [2]: 9.07 µM
- efflux ratio ([3]; pH 7.4, MDCK-MDR1, Papp (b-a) divided by Papp (a-b)): 0.8
- Papp A→B ([3]; MDCK-MDR1, apical-to-basal, pH 7.4, 37° C.): 100 ×10⁻⁶ cm/s
Structure (SMILES): Cc1nn2cc(C3CC3)cnc2c1C(=O)NC1(c2ccc(C(F)(F)F)cn2)CCOCC1 [Example 25]
